Reference: PubChem BioAssay (NCI)
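Values below derive from 48-hour exposures of cells grown in 96-well plates, with endpoints linearly interpolated between the two concentrations bracketing the appropriate inhibition level. Abbreviation: GI50, concentration required for 50% inhibition of growth. TGI: concentration producing complete growth inhibition.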

How the values were obtained:
Assay in all cases: NCI-60 cell line screen, 48 h
786-0 renal = tested on: 786-0 renal
HOP-62 NSCLC = tested on: HOP-62 NSCLC
HOP-92 NSCLC = tested on: HOP-92 NSCLC
MALME-3M melanoma = tested on: MALME-3M melanoma
OVCAR-5 ovarian = tested on: OVCAR-5 ovarian
SF-268 CNS = tested on: SF-268 CNS
SN12C renal = tested on: SN12C renal
SW-620 colon = tested on: SW-620 colon
UACC-62 melanoma = tested on: UACC-62 melanoma
UO-31 renal = tested on: UO-31 renal

COc1ccc(-c2nc3sc(-c4ccc(Cl)cc4)cn3n2)cc1
GI50 (786-0 renal): 1.06 µM | TGI (786-0 renal): 2.41 µM | GI50 (HOP-62 NSCLC): 2.36 µM | TGI (HOP-62 NSCLC): > 50 µM | GI50 (HOP-92 NSCLC): 0.915 µM | TGI (HOP-92 NSCLC): 7.61 µM | GI50 (MALME-3M melanoma): 2.71 µM | TGI (MALME-3M melanoma): > 50 µM | GI50 (OVCAR-5 ovarian): 2.78 µM | TGI (OVCAR-5 ovarian): > 50 µM | GI50 (SF-268 CNS): 48 µM | TGI (SF-268 CNS): > 50 µM | GI50 (SN12C renal): 1.84 µM | TGI (SN12C renal): > 50 µM | GI50 (SW-620 colon): 5.51 µM | TGI (SW-620 colon): > 50 µM | GI50 (UACC-62 melanoma): 8.24 µM | TGI (UACC-62 melanoma): > 50 µM | GI50 (UO-31 renal): 1.19 µM | TGI (UO-31 renal): 4.51 µM

CCn1c(C(=O)N(C2CC2)C2CC2)cc2c3c(ncn3C)c(Nc3cc(C)n(C)n3)nc21
GI50 (786-0 renal): > 100 µM | TGI (786-0 renal): > 100 µM | GI50 (HOP-62 NSCLC): > 100 µM | TGI (HOP-62 NSCLC): > 100 µM | GI50 (HOP-92 NSCLC): > 100 µM | TGI (HOP-92 NSCLC): > 100 µM | GI50 (MALME-3M melanoma): > 100 µM | TGI (MALME-3M melanoma): > 100 µM | GI50 (OVCAR-5 ovarian): > 100 µM | TGI (OVCAR-5 ovarian): > 100 µM | GI50 (SF-268 CNS): > 100 µM | TGI (SF-268 CNS): > 100 µM | GI50 (SN12C renal): 98.3 µM | TGI (SN12C renal): > 100 µM | GI50 (SW-620 colon): > 100 µM | TGI (SW-620 colon): > 100 µM | GI50 (UACC-62 melanoma): > 100 µM | TGI (UACC-62 melanoma): > 100 µM | GI50 (UO-31 renal): > 38.5 µM | TGI (UO-31 renal): > 100 µM

COc1cc(/C=C\c2ccccc2)cc(OC)c1OC
TGI (786-0 renal): > 52.8 µM | TGI (HOP-62 NSCLC): 23.5 µM | TGI (HOP-92 NSCLC): 21.8 µM | TGI (MALME-3M melanoma): 19.7 µM | TGI (OVCAR-5 ovarian): 47.3 µM | TGI (SF-268 CNS): 59.2 µM | TGI (SN12C renal): 48.6 µM | TGI (SW-620 colon): > 100 µM | TGI (UACC-62 melanoma): 41.2 µM | TGI (UO-31 renal): 30 µM

CCc1n(Cc2ccc3ccccc3n2)cc[n+]1Cc1ccc2ccccc2n1
GI50 (786-0 renal): 31.2 µM | TGI (786-0 renal): > 100 µM | GI50 (HOP-62 NSCLC): 4.66 µM | TGI (HOP-62 NSCLC): 31.5 µM | GI50 (HOP-92 NSCLC): 0.0183 µM | TGI (HOP-92 NSCLC): 0.521 µM | GI50 (MALME-3M melanoma): 0.128 µM | TGI (MALME-3M melanoma): 0.973 µM | GI50 (OVCAR-5 ovarian): 1.48 µM | TGI (OVCAR-5 ovarian): 22.9 µM | GI50 (SF-268 CNS): 0.453 µM | TGI (SF-268 CNS): 14.2 µM | GI50 (SN12C renal): 0.317 µM | TGI (SN12C renal): 7.75 µM | GI50 (SW-620 colon): 1.39 µM | TGI (SW-620 colon): 30.2 µM | GI50 (UACC-62 melanoma): 0.186 µM | TGI (UACC-62 melanoma): 3.05 µM | GI50 (UO-31 renal): 21.2 µM | TGI (UO-31 renal): > 100 µM

OC1c2ccccc2C2(O)C1C(c1ccccc1)C(c1ccccc1)C2(O)c1ccccc1 (stereo not given)
TGI (786-0 renal): 31.1 µM | TGI (HOP-62 NSCLC): 28.2 µM | TGI (HOP-92 NSCLC): 23.9 µM | TGI (MALME-3M melanoma): 26.9 µM | TGI (OVCAR-5 ovarian): 26.7 µM | TGI (SF-268 CNS): 68.8 µM | TGI (SN12C renal): 32.9 µM | TGI (SW-620 colon): 52 µM | TGI (UACC-62 melanoma): 28.4 µM | TGI (UO-31 renal): 55.5 µM

CC(C)CNCC(O)COc1ccc(C(C)(C)c2ccc(OCC(O)CNCC(C)C)cc2)cc1 (stereo not given)
GI50 (786-0 renal): 1.5 µM | TGI (786-0 renal): 3.03 µM | GI50 (HOP-62 NSCLC): 2.92 µM | TGI (HOP-62 NSCLC): 11.7 µM | GI50 (HOP-92 NSCLC): 1.48 µM | TGI (HOP-92 NSCLC): 9.17 µM | GI50 (MALME-3M melanoma): 1.71 µM | TGI (MALME-3M melanoma): 3.32 µM | GI50 (OVCAR-5 ovarian): 6.1 µM | TGI (OVCAR-5 ovarian): 20.2 µM | GI50 (SF-268 CNS): 3.9 µM | TGI (SF-268 CNS): 17.4 µM | GI50 (SN12C renal): 4.82 µM | TGI (SN12C renal): 18.3 µM | GI50 (SW-620 colon): 1.72 µM | TGI (SW-620 colon): 3.46 µM | GI50 (UACC-62 melanoma): 1.82 µM | TGI (UACC-62 melanoma): 3.4 µM | GI50 (UO-31 renal): 1.53 µM | TGI (UO-31 renal): 2.89 µM

CCCNCCCC(NC(C)=O)C(=O)NCc1ccccc1 (stereo not given)
TGI (786-0 renal): > 100 µM | TGI (HOP-62 NSCLC): > 100 µM | TGI (HOP-92 NSCLC): > 100 µM | TGI (MALME-3M melanoma): > 100 µM | TGI (OVCAR-5 ovarian): > 100 µM | TGI (SF-268 CNS): > 100 µM | TGI (SN12C renal): > 100 µM | TGI (SW-620 colon): > 100 µM | TGI (UACC-62 melanoma): > 100 µM | TGI (UO-31 renal): > 100 µM

CCCc1c(CC)c(=N)c2ccccc2n1C
GI50 (786-0 renal): > 100 µM | TGI (786-0 renal): > 100 µM | GI50 (HOP-62 NSCLC): > 100 µM | TGI (HOP-62 NSCLC): > 100 µM | GI50 (HOP-92 NSCLC): 30.5 µM | TGI (HOP-92 NSCLC): > 100 µM | GI50 (MALME-3M melanoma): 42.6 µM | TGI (MALME-3M melanoma): > 100 µM | GI50 (OVCAR-5 ovarian): > 100 µM | TGI (OVCAR-5 ovarian): > 100 µM | GI50 (SF-268 CNS): > 100 µM | TGI (SF-268 CNS): > 100 µM | GI50 (SN12C renal): 35.8 µM | TGI (SN12C renal): > 100 µM | GI50 (SW-620 colon): > 100 µM | TGI (SW-620 colon): > 100 µM | GI50 (UACC-62 melanoma): 66.3 µM | TGI (UACC-62 melanoma): > 100 µM | GI50 (UO-31 renal): > 100 µM | TGI (UO-31 renal): > 100 µM

C[C@H](NC(=O)[C@@H]1CSSC[C@@H](NC(=O)c2nc3ccccc3cc2O)C(=O)NCC(=O)N1C)c1ccccc1
GI50 (786-0 renal): 2.45 µM | TGI (786-0 renal): 9.78 µM | GI50 (HOP-62 NSCLC): 11.6 µM | TGI (HOP-62 NSCLC): 20.7 µM | GI50 (HOP-92 NSCLC): 9.69 µM | TGI (HOP-92 NSCLC): 18.6 µM | GI50 (MALME-3M melanoma): 6.08 µM | TGI (MALME-3M melanoma): 14 µM | GI50 (OVCAR-5 ovarian): 4.35 µM | TGI (OVCAR-5 ovarian): 12.1 µM | GI50 (SF-268 CNS): 0.43 µM | TGI (SF-268 CNS): 11 µM | GI50 (SN12C renal): 5.62 µM | TGI (SN12C renal): 14.1 µM | GI50 (SW-620 colon): 1.85 µM | TGI (SW-620 colon): 6.26 µM | GI50 (UACC-62 melanoma): 5.6 µM | TGI (UACC-62 melanoma): 13.2 µM | GI50 (UO-31 renal): 5.76 µM | TGI (UO-31 renal): 13.3 µM

COc1ccc(Nc2ncc(Br)c(NCCCNC(=O)C3CCC3)n2)cc1
GI50 (786-0 renal): 10.1 µM | TGI (786-0 renal): 47.1 µM | GI50 (HOP-62 NSCLC): 4.77 µM | TGI (HOP-62 NSCLC): 44.8 µM | GI50 (HOP-92 NSCLC): 5.58 µM | TGI (HOP-92 NSCLC): 39.8 µM | GI50 (MALME-3M melanoma): 24.6 µM | TGI (MALME-3M melanoma): > 100 µM | GI50 (OVCAR-5 ovarian): 10.8 µM | TGI (OVCAR-5 ovarian): 40.2 µM | GI50 (SF-268 CNS): 4.78 µM | TGI (SF-268 CNS): 41.6 µM | GI50 (SN12C renal): 5.45 µM | TGI (SN12C renal): 62.7 µM | GI50 (SW-620 colon): 6.6 µM | TGI (SW-620 colon): > 100 µM | GI50 (UACC-62 melanoma): 17.7 µM | TGI (UACC-62 melanoma): 36.3 µM | GI50 (UO-31 renal): 2.55 µM | TGI (UO-31 renal): 13.5 µM
